The results in this text go back to ChEMBL document CHEMBL2412971, “Selective orexin receptor antagonists” (Bioorg Med Chem Lett, 2013).

As a reminder, the Ki is the equilibrium dissociation constant of an inhibitor or competing ligand from its target. The IC50 is the concentration that inhibits the measured activity by half. Usually Kd stands for the equilibrium constant for the complex coming apart. A higher Kd goes with lower affinity.

The target of experiment [1] is Kappa-type opioid receptor (Homo sapiens, UniProt P41145). Put plainly: Binding affinity to kappa opioid receptor (unknown origin).
Chain of Kappa-type opioid receptor (P41145 whole entry): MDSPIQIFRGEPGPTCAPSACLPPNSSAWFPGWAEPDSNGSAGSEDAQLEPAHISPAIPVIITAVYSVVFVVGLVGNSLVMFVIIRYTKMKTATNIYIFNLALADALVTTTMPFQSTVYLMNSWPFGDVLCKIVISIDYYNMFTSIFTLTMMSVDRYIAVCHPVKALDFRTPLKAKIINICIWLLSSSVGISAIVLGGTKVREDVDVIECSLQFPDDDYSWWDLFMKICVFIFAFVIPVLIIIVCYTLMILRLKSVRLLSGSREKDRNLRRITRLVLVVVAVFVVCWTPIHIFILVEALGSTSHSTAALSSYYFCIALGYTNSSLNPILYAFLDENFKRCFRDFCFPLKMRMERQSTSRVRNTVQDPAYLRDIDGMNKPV
Experiment [2] addresses T1, Orexin receptor type 2 (Homo sapiens) (UniProt O43614).
T1 sequence (whole entry): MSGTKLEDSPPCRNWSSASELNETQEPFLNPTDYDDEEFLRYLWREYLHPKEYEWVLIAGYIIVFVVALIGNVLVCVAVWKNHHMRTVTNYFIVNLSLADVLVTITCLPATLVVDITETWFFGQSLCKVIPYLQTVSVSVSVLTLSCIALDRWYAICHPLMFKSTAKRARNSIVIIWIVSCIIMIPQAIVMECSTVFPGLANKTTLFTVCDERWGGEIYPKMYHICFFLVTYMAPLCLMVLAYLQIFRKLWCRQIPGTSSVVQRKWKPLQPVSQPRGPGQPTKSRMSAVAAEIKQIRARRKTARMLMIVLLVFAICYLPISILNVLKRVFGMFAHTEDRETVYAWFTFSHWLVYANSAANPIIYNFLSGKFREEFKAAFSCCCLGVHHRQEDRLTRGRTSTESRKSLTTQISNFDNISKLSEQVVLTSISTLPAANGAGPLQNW
Kind of experiment: (§1) Binding affinity to orexin receptor 2 (unknown origin).

For experiment [3], the target named is T2, Orexin/Hypocretin receptor type 1 (Homo sapiens) (UniProt O43613).
T2 sequence (whole entry): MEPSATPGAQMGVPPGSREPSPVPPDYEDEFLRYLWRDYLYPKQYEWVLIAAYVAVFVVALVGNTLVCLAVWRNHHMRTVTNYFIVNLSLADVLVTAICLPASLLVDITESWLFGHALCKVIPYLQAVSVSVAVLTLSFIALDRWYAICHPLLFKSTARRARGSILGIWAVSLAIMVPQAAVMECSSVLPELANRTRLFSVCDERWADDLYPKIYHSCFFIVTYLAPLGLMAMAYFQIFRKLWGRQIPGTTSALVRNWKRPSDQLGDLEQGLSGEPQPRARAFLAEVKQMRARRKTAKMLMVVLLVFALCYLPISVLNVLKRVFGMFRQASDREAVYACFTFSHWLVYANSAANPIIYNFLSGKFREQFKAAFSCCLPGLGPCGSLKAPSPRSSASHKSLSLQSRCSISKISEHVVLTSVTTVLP
Kind of experiment: (§2) Binding affinity to orexin receptor 1 (unknown origin).

In experiment [4] the target is T3, Orexin/Hypocretin receptor type 1 (Homo sapiens, UniProt O43613).
T3 sequence (O43613 whole entry): T2 sequence (whole entry)
Kind of experiment: Antagonist activity at human orexin receptor 1 expressed in CHO cells assessed as inhibition of orexin-A-induced calcium flux by FLIPR assay. The class given is functional, cell-based. Background: Calcium flux is commonly read through the fluorescence of an indicator in the cells.

For experiment [5], the target named is T4, Orexin receptor type 2 (Homo sapiens, UniProt O43614).
T4 sequence (O43614 whole entry): T1 sequence (whole entry)
Put plainly: Antagonist activity at human orexin receptor 2 expressed in CHO cells assessed as inhibition of orexin-A-induced calcium flux by FLIPR assay. The experiment is classed as functional, cell-based.

Experiment [6] addresses 5-hydroxytryptamine receptor 2B (Homo sapiens, UniProt P41595). Put plainly: Binding affinity to 5HT2B receptor (unknown origin).
For another experiment, the target named is D(1A) dopamine receptor (Homo sapiens, UniProt P21728). Put plainly: Binding affinity to dopamine D1 receptor (unknown origin).
Chain of D(1A) dopamine receptor (P21728 whole entry): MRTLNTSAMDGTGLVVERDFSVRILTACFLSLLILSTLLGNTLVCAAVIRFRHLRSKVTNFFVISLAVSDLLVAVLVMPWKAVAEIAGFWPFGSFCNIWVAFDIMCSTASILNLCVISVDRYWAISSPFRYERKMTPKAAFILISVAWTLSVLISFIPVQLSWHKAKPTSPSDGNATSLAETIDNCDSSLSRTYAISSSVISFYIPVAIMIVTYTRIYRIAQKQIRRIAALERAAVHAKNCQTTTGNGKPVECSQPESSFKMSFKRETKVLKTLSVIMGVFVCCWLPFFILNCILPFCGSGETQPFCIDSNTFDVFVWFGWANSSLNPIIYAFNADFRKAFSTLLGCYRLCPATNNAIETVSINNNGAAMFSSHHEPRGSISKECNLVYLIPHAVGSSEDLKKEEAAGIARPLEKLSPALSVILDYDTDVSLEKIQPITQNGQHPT
Experiment [7] concerns the target T4, Orexin receptor type 2. Described as §1.
The target in experiment [8] is T3, Orexin/Hypocretin receptor type 1. Described as §2.
For experiment [9], the target named is T5, 5-hydroxytryptamine receptor 2C (Homo sapiens, UniProt P28335).
T5 sequence (P28335 whole entry): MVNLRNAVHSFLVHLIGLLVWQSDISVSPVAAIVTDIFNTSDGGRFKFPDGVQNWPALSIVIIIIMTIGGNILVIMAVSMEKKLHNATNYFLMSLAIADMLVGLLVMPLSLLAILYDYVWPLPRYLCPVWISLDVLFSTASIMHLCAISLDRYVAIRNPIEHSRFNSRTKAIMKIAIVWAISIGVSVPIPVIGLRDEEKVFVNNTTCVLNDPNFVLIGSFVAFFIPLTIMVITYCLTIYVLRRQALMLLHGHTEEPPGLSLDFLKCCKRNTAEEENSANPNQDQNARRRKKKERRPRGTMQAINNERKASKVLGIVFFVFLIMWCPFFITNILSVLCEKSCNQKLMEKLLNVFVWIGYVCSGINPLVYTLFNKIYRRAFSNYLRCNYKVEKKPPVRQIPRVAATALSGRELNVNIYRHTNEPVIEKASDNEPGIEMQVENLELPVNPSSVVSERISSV
Kind of experiment: Binding affinity to 5HT2C receptor (unknown origin).

For a further experiment, the target named is Adenosine receptor A2a (Homo sapiens, UniProt P29274). Kind of experiment: Binding affinity to adenosine A2A receptor (unknown origin).
Chain of Adenosine receptor A2a (P29274 whole entry): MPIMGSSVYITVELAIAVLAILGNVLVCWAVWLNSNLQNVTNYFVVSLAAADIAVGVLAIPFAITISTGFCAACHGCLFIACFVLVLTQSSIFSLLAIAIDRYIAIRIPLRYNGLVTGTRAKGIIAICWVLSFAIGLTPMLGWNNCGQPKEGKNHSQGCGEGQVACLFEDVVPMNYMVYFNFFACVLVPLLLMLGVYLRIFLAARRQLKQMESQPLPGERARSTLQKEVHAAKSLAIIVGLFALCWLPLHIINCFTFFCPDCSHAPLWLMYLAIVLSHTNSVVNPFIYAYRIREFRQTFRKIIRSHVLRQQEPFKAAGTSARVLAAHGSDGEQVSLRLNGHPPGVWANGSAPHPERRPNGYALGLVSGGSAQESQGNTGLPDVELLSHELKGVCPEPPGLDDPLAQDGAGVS

Chain of 5-hydroxytryptamine receptor 2B (P41595 whole entry): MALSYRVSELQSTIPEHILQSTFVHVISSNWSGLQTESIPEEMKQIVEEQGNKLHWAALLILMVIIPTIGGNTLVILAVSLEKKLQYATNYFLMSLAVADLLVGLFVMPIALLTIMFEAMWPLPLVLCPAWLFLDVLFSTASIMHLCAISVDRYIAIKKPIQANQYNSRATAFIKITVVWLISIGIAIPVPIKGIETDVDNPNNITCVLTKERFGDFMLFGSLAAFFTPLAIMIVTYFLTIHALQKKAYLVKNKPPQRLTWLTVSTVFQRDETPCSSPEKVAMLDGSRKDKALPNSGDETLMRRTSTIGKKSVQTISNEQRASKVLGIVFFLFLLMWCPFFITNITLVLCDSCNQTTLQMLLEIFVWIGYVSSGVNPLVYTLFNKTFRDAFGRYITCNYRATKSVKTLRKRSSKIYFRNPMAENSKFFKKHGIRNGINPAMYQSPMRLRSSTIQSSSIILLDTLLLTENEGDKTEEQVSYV

In turn, `COc1c(F)cccc1C(=O)N1C[C@@H](C)CC[C@H]1CNc1ccc(Br)cn1` (racemic) showed a Ki in [1] of 320 nM. Further, the values for the Kb in [2] and in [3] were 126 nM and 1.6 nM, respectively.

Take `Cc1cc(C)nc(NC[C@@H]2CC3(CC3)CN2C(=O)c2nc(C)sc2-c2ccccc2)n1`: the values for the Kb in experiment [2] and in [3] were 2.5 nM and 31.6 nM, respectively.

Take `CN(Cc1ccc(F)cc1)C(=O)Cn1cc(S(=O)(=O)Cc2ccc(F)cc2)c2ccccc21`: the IC50 worked out at 4360 nM in experiment [4] and 5 nM on Orexin receptor type 2 [5].

As for `CN(Cc1ccc(F)cc1)C(=O)Cc1nc(S(=O)(=O)Cc2ccccc2)c2ccccn12`, the values for the IC50 (in [4]; at Orexin receptor type 2 [5]) were more than 10000 nM and 194 nM, respectively.

As to `Cc1cc(NC(=O)Nc2ccc(N(C)C)cc2)c2cc(F)cc(F)c2n1`, the Ki in experiment [6] was 320 nM; on D(1A) dopamine receptor, 1780 nM; on Orexin receptor type 2 [7] it was 1400 nM; in experiment [8] it was 22 nM.

In the case of `Cc1c(S(=O)(=O)Cc2ccccc2)c2ccccn2c1CC(=O)N(C)Cc1ccccc1`, the IC50 in experiment [4] is 3780 nM; on Orexin receptor type 2 [5], 1 nM.

With `CNC(=O)[C@@H](c1ccccc1)N1CCc2cc(OC)c(OC)cc2[C@@H]1CCc1ccc(C(F)(F)F)cc1` [ALMOREXANT], on Orexin receptor type 2 [7], the Ki was found to be 8 nM.

On to `Cc1nc2ccc(NC(=O)Nc3ccnc4cccnc34)cc2o1`, for which the figures for the Ki (in experiment [9]; on Adenosine receptor A2a) were 1200 nM and 670 nM, respectively.

As to `CC1(C)OC[C@H](NC(=O)Nc2ccc(Br)cc2Br)[C@H](c2ccccc2)O1`, the Ki at Orexin receptor type 2 [7] came out at 6 nM; in [8], 1640 nM.

Turning to `Cc1nc(C(=O)N2CCC[C@H]2Cc2nnc(-c3ccccc3)o2)c(-c2ccccc2F)s1`, the Ki on Orexin receptor type 2 [7] stood at 129 nM; in experiment [8], 1.1 nM.

Take `Cc1ccc(-n2nccn2)c(C(=O)N2CCC[C@@H](COc3nccc4ccccc34)[C@@H]2C)c1`: the Ki in experiment [8] was determined as 0.5 nM.

For the molecule `CN(Cc1ccccc1)C(=O)Cn1cc(S(=O)(=O)Cc2ccccc2)c2ccccc21`, the results for the IC50 (in [4]; on Orexin receptor type 2 [5]) were 3460 nM and 35 nM, respectively.

On to `CCCOc1ccc(C)nc1C(=O)N1C[C@@H]2C[C@@H]2C[C@H]1CNc1ncc(C(F)(F)F)cn1`, for which the Kb is 63 nM in experiment [2] and 0.3 nM in [3].

The molecule `Cc1nc(C(=O)N2CCCC[C@H]2CNC(=O)c2cccc3occc23)c(-c2ccc(F)cc2)s1` [SB-649868] yielded a Ki in experiment [8] of 0.3 nM.

On to `CN(C)c1ccc(NC(=O)Nc2ccnc3c(F)ccc(F)c23)cc1`, for which the values for the Ki (at Orexin receptor type 2 [7]; in [8]) were 503 nM and 8.7 nM, respectively.

The molecule `Cc1ccc(-n2nccn2)c(C(=O)N2CCC[C@@H](COc3ccccn3)[C@@H]2C)c1` registered a Ki in [8] of 1 nM.

For `Cc1nc(C(=O)N2CC3(CC3)C[C@H]2CNc2ncc(Cl)cn2)c(-c2ccccc2)s1`, the Kb in [2] and in experiment [3] was 158 nM in each case.

For `Cc1ccc(-c2ncccc2C)c(C(=O)N2C[C@@H]3C[C@@H]3C[C@H]2CNc2ncc(C(F)(F)F)cn2)n1`, the Kb in experiment [2] was found to be 16 nM; in [3], 0.6 nM.

As for `Cc1ccc(-c2ncccn2)c(C(=O)N2C[C@H](COc3ccc(F)cn3)CC[C@H]2C)c1` [FILOREXANT], affinity on Orexin receptor type 2 [7] was put at a Ki of 0.3 nM.

Consider `Cc1ccc(NC[C@@H]2C[C@H]3C[C@H]3CN2C(=O)c2nc(C)ccc2OCC2CC2)nc1`, for which the figures for the Kb in [2] and in experiment [3] were 4 nM and 0.5 nM, respectively.

Take `Cc1c(S(=O)(=O)Cc2ccc(F)cc2)c2ccccn2c1CC(=O)N(C)Cc1ccc(F)cc1`: the Ki on Orexin receptor type 2 [7] is 5.7 nM; in experiment [8], 4360 nM.

As to `CCn1nc(C)cc1C(=O)NCC[C@H](Cc1ccccc1)N(C)C(=O)c1cc(C)ccc1-n1nccn1`, the Kd was 7 nM on Orexin receptor type 2 [7] and 3050 nM in experiment [8].

In the case of `CCN(CC)c1ccc(NC(=O)c2oc3ccccc3c2C)cc1`, the inhibitory constant (Ki) at Orexin receptor type 2 [7] was more than 10000 nM; in [8] it was 36 nM.

`CCOc1ccc(C)nc1C(=O)N1C[C@@H]2C[C@@H]2C[C@H]1CNc1ncc(C(F)(F)F)cn1` had a Kb in [3] of 0.3 nM.

For `CN(Cc1ccccc1)C(=O)Cn1nc(S(=O)(=O)Cc2ccccc2)c2ccccc21`, the IC50 worked out at 998 nM in [4] and 14 nM on Orexin receptor type 2 [5].

As for `Cc1ccc(-n2nccn2)c(C(=O)N2C[C@H](COc3nccc4ccccc34)OC[C@H]2C)c1`, in experiment [4], the Ki was determined as 2.2 nM.

Turning to `O=C(Cn1cc(S(=O)(=O)Cc2ccc(F)cc2)c2ccccc21)NCc1ccc(F)cc1`, the IC50 in experiment [4] came to 9190 nM; at Orexin receptor type 2 [5] it was 96 nM.

For `Cc1cccc(-c2sc(C)nc2C(=O)N2CCC2CNC(=O)c2cccc3c2OCCN3C)c1` (racemic), the values for the IC50 (in experiment [4]; on Orexin receptor type 2 [5]) were 3100 nM and 13 nM, respectively.

`CCCOc1ccc(C)nc1C(=O)N1C[C@@H]2C[C@@H]2C[C@H]1CNc1cnc(C)c(C)n1`: the Kb in experiment [2] was 1.3 nM; in experiment [3] it was 1 nM.

Take `COc1ccc(C[C@H]2c3cc(OC)c(OC)cc3CCN2[C@@H](C(=O)NC(C)C)c2ccccc2)cc1OC`: the IC50 in experiment [8] was found to be 6 nM.

With `[3H]c1cccc([3H])c1-c1nnc(C[C@@H]2CCCN2C(=O)c2nc(C)sc2-c2ccccc2F)o1`, the Ki on Orexin receptor type 2 [7] amounted to 129 nM; in [8], 1.1 nM.

On to `Cc1ccc(-n2nccn2)c(C(=O)N2C[C@H](COc3ncccc3C)OC[C@H]2C)c1`, for which, in [4], the Ki is 720 nM.

As for `Cc1cccc(-c2sc(C)nc2C(=O)N2CCC2CNC(=O)c2c(N)nc3sccn23)c1` (racemic), the IC50 in experiment [4] came to 10 nM; at Orexin receptor type 2 [5], 5 nM.

As to `Cc1nc(C(=O)N2CC3(CC3)C[C@H]2CNc2ccc(Cl)cn2)c(-c2ccccc2)s1`, the figures for the Kb in experiment [2] and in experiment [3] were 79.4 nM and 5 nM, respectively.

Regarding `Cc1cc(C)nc(N2CC[C@@H]3CN(C(=O)c4cc(F)ccc4-n4nccn4)[C@H]3C2)n1`, the Ki in [4] stood at 1400 nM; at Orexin receptor type 2 [5], 18 nM.

As to `Cc1cnn(-c2ccc(C)nc2C(=O)N2C[C@@H]3C[C@@H]3C[C@H]2CNc2ncc(C(F)(F)F)cn2)c1`, the Kb is 0.4 nM in experiment [2] and 0.6 nM in [3].

As to `CCOc1ccc(C)nc1C(=O)N1C[C@@H]2C[C@@H]2C[C@H]1CNc1ncc(C)cn1`, the Kb came to 100 nM in [2] and 0.8 nM in experiment [3].

On to `Cc1c(S(=O)(=O)Cc2ccccc2)c2ccccn2c1CC(=O)N(C)Cc1ccc(F)cc1`, for which the IC50 turned out to be 2380 nM in experiment [4] and 0.8 nM at Orexin receptor type 2 [5].
